Results: PubChem BioAssay AID2202554 (NIEHS Division of Translational Toxicology (DTT))
Inconclusive results are not listed. Active and inactive are the calls of the source. The rule behind the calls is not given here.

Each molecule was assayed on S. typhimurium/E. coli reverse mutation, colony counts (assay: Bacterial reverse mutation test (aka Ames test) summary data).
Method in brief: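 Revertant colony counts on plates, compared with untreated controls, after about two days of growth. Exposure with or without liver S9 (rat/hamster/mouse), dose range per strain, 20-min 37° C preincubation or direct plate incorporation. Strains: his⁻ Salmonella, trp⁻ E. coli WP2 uvrA pKM101.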

Row | SMILES | outcome
1 | CC(N)=S | inactive; negative
2 | IC(I)I | active; positive
3 | CCCSC(=O)Cl | active; positive
4 | O=[N+]([O-])c1ccc(Nc2ccc(Nc3ccccc3)c(S(=O)(=O)O)c2)c([N+](=O)[O-])c1 | active; positive
5 | c1ccc2ncccc2c1 | active; positive
6 | C=CCc1ccc(OC)c(OC)c1 | inactive; negative
7 | NCCCOCCOCCOCCCN | inactive; negative
8 | CC(=O)C(C)O (stereo unspecified) | inactive; negative
9 | O=C1C=CC(=O)C=C1 | inactive; negative
10 | O=C(Nc1ccc(Cl)cc1)Nc1ccc(Cl)c(Cl)c1 | inactive; negative
11 | COc1cc2c(c(OC)c1OC)-c1ccc(OC)c(=O)cc1[C@@H](NC(C)=O)CC2 | inactive; negative
12 | Cc1ccc(C(C)(C)O)cc1 | inactive; negative
13 | [O-][N+](=Nc1ccc(Cl)c(Cl)c1)c1ccc(Cl)c(Cl)c1 | inactive; negative
14 | CCCCCO | inactive; negative
15 | O=C(O)CN(CC(=O)O)CC(=O)O | inactive; negative
16 | CN(C)C(=S)SSC(=S)N(C)C | active; positive
17 | CC[C@H]1CN2CCc3cc(OC)c(OC)cc3[C@@H]2C[C@@H]1C[C@H]1NCCc2cc(OC)c(OC)cc21 | inactive; negative
18 | CCCCCCCCC1CO1 (stereo unspecified) | inactive; negative
19 | COS(C)(=O)=O | active; positive
20 | Cc1cc(Br)ccc1NC(=O)CCl | active; positive
21 | CC(C)=CCCC(C)CCO (stereo unspecified) | inactive; negative
22 | Brc1ccccc1-c1ccccc1 | inactive; negative
23 | O.O.O.O.O.O.O=S(=O)([O-])[O-].[Ni+2] | inactive; negative
24 | O=C(O)CS | inactive; negative
25 | Cc1cc(O)c(C(C)(C)C)cc1Sc1cc(C(C)(C)C)c(O)cc1C | inactive; negative
26 | OC[C@@]1(O)CO[C@](O)(CO)CO1 | active; positive

Row | SMILES | outcome
27 | O=c1c(O)c(-c2ccc(O)c(O)c2)oc2cc(O)cc(O)c12 | active; positive
28 | CCCCCCc1ccc(-c2ccc(C#N)cc2)cc1 | inactive; negative
29 | C=CC(=O)OCC1CO1 (stereo unspecified) | active; positive
30 | COc1cc(Cl)c(OC)cc1Cl | active; positive
31 | NCCNCCNCCN | active; positive
32 | N#C/C=C/C#N | inactive; negative
33 | CC(C)CN(CC(C)C)CC(C)C | inactive; negative
34 | CCC#N | inactive; negative
35 | O=C(O)c1cc(O)c2c(c1)[C@@H]([C@H]1c3cc(C(=O)O)cc(O)c3C(=O)c3c(O[C@@H]4O[C@H](CO)[C@@H](O)[C@H](O)[C@H]4O)cccc31)c1cccc(O[C@@H]3O[C@H](CO)[C@@H](O)[C@H](O)[C@H]3O)c1C2=O | inactive; negative
36 | Brc1ccc(Oc2cc(Br)c(Br)cc2Br)c(Br)c1 | inactive; negative
37 | S=C(NC1CCCCC1)NC1CCCCC1 | inactive; negative
38 | Nc1cccc2c(=O)[nH][nH]c(=O)c12 | inactive; negative
39 | NCCO | inactive; negative
40 | COC(=O)c1ccc(C(=O)OC)cc1 | inactive; negative
41 | CS(=O)(=O)c1ccc(O)c(N)c1 | inactive; negative
42 | CCOC(C)=O | inactive; negative
43 | CCNC(=S)NCC | inactive; negative
44 | Nc1ccc(Cl)cc1[N+](=O)[O-] | active; positive
45 | COc1ccc(OC)c(N=Nc2c(O)ccc3ccccc23)c1 | active; positive
46 | Cc1cccc([N+](=O)[O-])c1C(=O)O | active; positive
47 | Nc1ccc(-c2ccc(N)c(O)c2)cc1O | active; positive
48 | C=CCCl | active; positive
49 | CC(C)CC(=O)CC(C)C | inactive; negative
50 | Sc1ccccc1 | inactive; negative
51 | CC1CNCC(C)O1 (stereo unspecified) | active; positive
52 | Nc1c(S(=O)(=O)O)cc(Nc2cccc(S(=O)(=O)CCOS(=O)(=O)O)c2)c2c1C(=O)c1ccccc1C2=O | active; positive

Row | SMILES | outcome
53 | CC(C)Oc1ccc(Nc2ccccc2)cc1 | inactive; negative
54 | CCC(C)(C)C | inactive; negative
55 | C[C@H]1CCC[C@H](O)CCCCCc2cc(O)cc(O)c2C(=O)O1 | inactive; negative
56 | O=C1OC(=O)c2ccccc21 | inactive; negative
57 | CN=C=O | inactive; negative
58 | Cc1cc(O)c2c(c1)C(=O)c1cc(O)cc(O)c1C2=O | active; positive
59 | Nc1ccc(N=Nc2ccccc2)c(N)n1 | active; positive
60 | Nc1c(Br)cc(Br)c2c1C(=O)c1ccccc1C2=O | active; positive
61 | Nc1nc(=O)n([C@@H]2CS[C@H](CO)O2)cc1F | inactive; negative
62 | CC(C)COC(=O)COc1cc(Cl)c(Cl)cc1Cl | inactive; negative
63 | Nc1ccc([N+](=O)[O-])cc1[N+](=O)[O-] | active; positive
64 | C=CCN(CC=C)CC=C | inactive; negative
65 | CC(=O)NNC(=O)c1ccccn1 | inactive; negative
66 | CNNCc1ccc(C(=O)NC(C)C)cc1 | inactive; negative
67 | Nc1ccc2cc(S(=O)(=O)O)c(N=Nc3ccc(-c4ccc(N=Nc5c(S(=O)(=O)O)cc6cc(S(=O)(=O)O)cc(N)c6c5O)cc4)cc3)c(O)c2c1 | active; positive
68 | CN(C)N=Nc1nc[nH]c1C(N)=O | active; positive
69 | ClC(Cl)=C(c1ccc(Cl)cc1)c1ccc(Cl)cc1 | inactive; negative
70 | COc1ccc(CCC(=O)c2c(O)cc(O[C@@H]3O[C@H](CO)[C@@H](O)[C@H](O)[C@H]3O[C@@H]3O[C@@H](C)[C@H](O)[C@@H](O)[C@H]3O)cc2O)cc1O | inactive; negative
71 | CC1(C)C(=O)N(Cl)C(=O)N1Cl | inactive; negative
72 | Nc1ccc(O)c(N)c1 | active; positive
73 | CCCCC1C(=O)N(c2ccccc2)N(c2ccccc2)C1=O | inactive; negative
74 | Cc1cc(-c2ccc(N=Nc3c(S(=O)(=O)O)cc4cc(S(=O)(=O)O)cc(N)c4c3O)c(C)c2)ccc1N=Nc1c(S(=O)(=O)O)cc2cc(S(=O)(=O)O)cc(N)c2c1O | active; positive
75 | Oc1ccc2ccccc2c1N=Nc1ccccc1 | active; positive
76 | CCCCN(CCO)CCCC | inactive; negative
77 | Cc1c[nH]c(=S)[nH]c1=O | inactive; negative
78 | NNC(N)=S | inactive; negative

Row | SMILES | outcome
79 | CCCCCCCC/C=C\CCCCCCCC(=O)O | inactive; negative
80 | C=CCOC(=O)CC(C)C | inactive; negative
81 | Brc1ccc(-c2ccccc2)cc1 | inactive; negative
82 | OCc1ccco1 | inactive; negative
83 | COc1cc(Cc2cnc(N)nc2N)cc(OC)c1OC | inactive; negative
84 | C=CCOC(=O)C=C | inactive; negative
85 | Cc1cc(-c2ccc(N)c(C)c2)ccc1N | active; positive
86 | Nc1ccc([N+](=O)[O-])c(N)c1 | active; positive
87 | c1ccc(O[Si](Oc2ccccc2)(Oc2ccccc2)Oc2ccccc2)cc1 | inactive; negative
88 | CCCCCCCCCCCC(=O)[O][Sn]([CH2]CCC)([CH2]CCC)[O]C(=O)CCCCCCCCCCC | inactive; negative
89 | CCCCCCCCCC=CCC1CC(=O)OC1=O (stereo unspecified) | inactive; negative
90 | Oc1c(Cl)c(Cl)c(Cl)c(Cl)c1Cl | inactive; negative
91 | Oc1cccc(Nc2ccccc2)c1 | inactive; negative
92 | Cl/C=C/Cl | inactive; negative
93 | C=CC(=O)OCCCC | inactive; negative
94 | CCOCCOC(C)=O | active; positive
95 | CC1OC1C (stereo unspecified) | active; positive
96 | O=C1C2(Cl)C3(Cl)C4(Cl)C(Cl)(Cl)C5(Cl)C3(Cl)C1(Cl)C5(Cl)C24Cl (stereo unspecified) | inactive; negative
97 | COC(=O)c1ccccc1C(=O)OC | inactive; negative
98 | Cc1c(N=C=O)cccc1N=C=O | active; positive
99 | Clc1ccc(C(c2ccc(Cl)cc2)C(Cl)Cl)cc1 | inactive; negative
100 | CC(O)C#N (stereo unspecified) | active; weakly positive
101 | Clc1ccc(COC(Cn2ccnc2)c2ccc(Cl)cc2Cl)cc1 (stereo unspecified) | inactive; negative
102 | Oc1c(Cl)cccc1Cl | inactive; negative
103 | COc1ccc(N)c(C)c1 | active; positive
104 | O=P1(N(CCCl)CCCl)NCCCO1 (stereo unspecified) | active; positive

Row | SMILES | outcome
105 | CS(=O)(=O)c1ccc(C(=O)C2C(=O)CCCC2=O)c([N+](=O)[O-])c1 | active; positive
106 | CCN(CC)C(=O)C(Cl)=C(C)OP(=O)(OC)OC | active; positive
107 | CNc1ccc(O)cc1 | active; positive
108 | Cc1ccc(C)cc1 | inactive; negative
109 | O=C=S | active; weakly positive
110 | c1ccc2c(c1)c1cccc3ccc4cccc2c4c31 | active; positive
111 | CCNc1ccccc1 | inactive; negative
112 | CC(=O)Nc1cccc(N)c1 | active; positive
113 | c1ccc2cc3ccccc3cc2c1 | active; weakly positive
114 | Oc1ccccc1 | inactive; negative
115 | C[N+](C)=c1ccc2nc3ccc(N)cc3sc-2c1 | active; positive
116 | CC(=O)C(C)=NO | inactive; negative
117 | CCCCCCCC(=O)O | inactive; negative
118 | CC(=O)C=Cc1ccc2c(c1)OCO2 | inactive; negative
119 | [Na+] | inactive; negative
120 | ClC1C(Cl)C(Cl)C(Cl)C(Cl)C1Cl (stereo unspecified) | inactive; negative
121 | N#CCCl | inactive; negative
122 | Clc1c(Cl)c(Cl)c2c(Cl)c(Cl)c(Cl)c(Cl)c2c1Cl | inactive; negative
123 | Nc1ccn([C@H]2CC[C@@H](CO)O2)c(=O)n1 | active; weakly positive
124 | NC(=Nc1ccccc1)Nc1ccccc1 | active; weakly positive
125 | C=C(Cl)CSC(=S)N(CC)CC | active; positive
126 | Clc1cc(Cl)c(Cl)c(Cl)c1 | inactive; negative
